Experimental data as given in publication PMC3340143 (The Journal of Biological Chemistry, 2012).

Biological target: T1, CymA (Shewanella oneidensis, UniProt Q8E8S0)
T1 sequence (Q8E8S0 1-187): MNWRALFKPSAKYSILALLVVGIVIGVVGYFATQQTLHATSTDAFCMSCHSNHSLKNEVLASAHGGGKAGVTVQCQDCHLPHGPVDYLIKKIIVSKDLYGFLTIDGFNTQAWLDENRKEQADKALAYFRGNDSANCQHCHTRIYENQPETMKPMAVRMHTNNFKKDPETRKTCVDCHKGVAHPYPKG
Test: protein-film cyclic voltammetry, inhibition of menaquinone-7 reduction
Format: biochemical

With `CCCCCCCc1cc(O)c2ccccc2[n+]1[O-]` [HQNO] the Ki was 800 nM.
